According to patent publication US20250345309A1, “IMMUNE HEALTH IMPROVERS” (Amazentis SA, priority 2024, published 2025):

Tested on: PBMCs
Test: Mitochondrial analysis of PBMCs (Mitotracker Green, MitotrackerRedCMXROS, PGC-1α, Parkin)
Format: in vivo, human
Method: PBMCs were thawed as depicted above and cultured in T cell medium (RPMI (ThermoFisher Scientific) 10% FBS (South America origin), 10 mM Hepes (Sigma), 1× Non-Essential Amino Acid, 1 mM Sodium Pyruvate, 50 μM β-Mercaptoethanol, 100 U/ml penicillin, 100 μg/ml streptomycin and 2 mM Glutamax (ThermoFisher Scientific)) overnight. After washing, cells were reconstituted in T cell medium containing respective staining agent: for labelling of mitochondrial mass, Mitotracker Green (Invitrogen) was used at a concentration of 40 nM for 30 mins at 37° C. Mitochondrial membrane potential was assessed via MitotrackerRedCMXROS. Cells were then stained with a combination of CD3 vFlour 450, PE-Cy7 CD4, APC-Cy7 CD8, CCR7 APC, CD45RA FITC and Ghost Violet510. To assess expression of peroxisome proliferator-activated receptor gamma coactivator 1-alpha (PGC-1α), cells were rested for four hours after thawing, then stained with the panel above for 15 mins at 4° C. After washing in FACS buffer, cells were permeabilized and fixed using the eBioscience™ Foxp3/Transcription Factor Staining Buffer Set, followed by staining with PGC-1α (sc-518025; D-5; Santa Cruz) antibody. To assess the expression of Parkin, cells were first stained with CD4 BV786, CD8 PECF 594, CD3 BUV 395, CD45RA FITC, CD14 eF450 and live/dead 780, followed by permeabilization and fixation with transcription factor buffer set kit (BD Biosciences). For mitochondrial analysis, cells were finally fixed in 1% PFA and analyzed on a Cytek Aurora cytometer. Samples were unmixed using reference controls generated in combination with stained Ultracomp beads (Fisher Scientific, 01-2222-41).

[1] = after 28 days, 1000 mg/day oral

O=c1oc2cc(O)ccc2c2ccc(O)cc12 [Urolithin A]
Mitochondrial content in several CD8+ subsets (TN, TEM, TCM, TEFF) [1]: Increased | Mitochondrial content of CD4+ cells [1]: no significant change | Mitochondrial mass: proportion of MTGHi cells in CD8+ cells (after 28 days, 1000 mg/day oral, absent in placebo): increased | PGC-1α expression in CD8+ cells (after intervention period (d28), 1000 mg/day oral, no change with placebo): stronger expression | Mitochondrial membrane potential (MMP) in CD8+ cells (d28, 1000 mg/day oral): significantly lower | PGC-1α in CD4+ cells (d28, 1000 mg/day oral): no significant induction | Reduction of MMP in CD4+ cells (d28, 1000 mg/day oral): absent | Reduction of MMP in CD8 subsets (d28, 1000 mg/day oral): retained | Parkin protein expression (study visits at seven days or 28 days, 1000 mg/day oral): Change in Parkin protein expression was detected
